# Assay results reported in patent US20030216471A1, “Retinoid formulations for aerosolization and inhalation” (priority 2003, published 2003).
# Entries after “also recorded” stand apart in the source; their conditions may differ. Read-outs that look alike come from different tables or passages of the source. Marks after values point to notes of the source that are not given here.
# Tests used:
# RAR γ [1] = assay: RAR induction in lungs of A/J mice exposed to isotretinoin aerosol, RAR γ; type: in vivo, mouse; settings: inhaled mid dose, urethane-treated A/J mice
# Procedure: (§4) Antibodies: Polyclonal antibodies to RARα, β and γ (Santa Cruz Biotechnology Inc., San Francisco, Calif.) were used with a BM Chemiluminescence Western Blotting Kit (Mouse/Rabbit) (Boehringer Mannheim Corporation, Indianapolis).
# (§5) Experimental Design: Five lungs each from the urethane-treated vehicle, low dose, and mid dose animals were snap frozen in liquid nitrogen and stored at −70° C. for determination of RARs α, β and γ by Western Blot Analysis. […] The lungs were homogenized and the RARs were determined by standard Western Blotting (21, 22).
# (§6) Samples: Lung tissue was collected, frozen on dry ice and kept at −70° C. until used. A 500 mg portion was diced in small pieces and homogenized in 300 μl of cold PBS using a hand held homogenizer for 2-3 min. Samples were centrifuged at 500 rpm for 5 min or until the supernatant was clear. The pellet was suspended in 400 μl of cold Buffer A [2 μl 0.5 M EDTA, 10 μl mM EGTA, 50 μl 100 mM PMSF, 10 μl 1M DTT, 10 ml (10 mM HEPES pH 7.9+10 mM KCl)], and left at ice temperature for 15 min. A 25 μl volume of 10% solution of NP−40 was added and the samples were mixed in a vortex vigorously for 10 sec. Samples were centrifuged at 14,000 rpm for 1 min at 4° C. and the pellet was treated once more in this fashion. […]
# A/J mouse = settings: cited from earlier work; for Efficacy (Carcinogen): 20 weeks, urethane
# [2] = doses used in the MD Anderson study, based on pharmacokinetic data; cited from earlier work
# albumin = albumin (Homo sapiens, UniProt P02768); settings: systemic administration, reported; cited from earlier work
# TGase II = TGase II activity in cultured human breast cancer MCF-7 cells; type: cell-based; settings: MCF-7 cells, 10^−6 M, 72 hours, over DMSO
# Procedure: Cells were harvested and Transglutaminase II activity was measured as described below. Nebulizer solution, inhalation procedures, details of animal housing are described below.
# Cultured cells were placed in 100 μl scraping buffer [A: 2800 μl (400 μl 0.5M Na-Phosphate, 500 μl 0.01M EDTA, 100 μl 1M DTT, 9 ml PBS total 10 ml)+B:700 μl (10 μl 20 mg/ml PMSF 790 μl PBS total 800 μl)] for each dish. Cells were broken by a sonicator and kept in ice until used. TGase II assay was conducted as described below and previously {8217}.
# Enzyme assay mixtures were prepared by adding 80 μl of SUBSTRATE mixture (322.8 μl H2O, 120 μl 0.5M NaBorate, 60 μl 0.01M EDTA, 60 μl 0.1M CaCl2, 6 μl 1M DTT, 240 μl dimethyl casein, 30 μl Triton X-100, 1.21 μl [^3H]-Putrescine, 120 μl Putrescine) to 20 μl sample, 20 μl scraping buffer for blank control, 20 μl (18 μl scraping buffer+2 μl TGase II) for positive control. Samples were mixed in 15 ml tubes, the tubes were shaken before putting them into a 28° C. water bath for 30 minutes. Reactions were slowed down in an ice bath. 80 μl of the incubation mixture was adsorbed onto paper disks. These were immediately dropped into cold 10% TCA (0.1% Putrescine) and washed with agitation for 7 minutes, followed by 2 additional washes with 5% TCA (0.05% putrescine) for 5-7 minutes, and once more with cold (−20° C.) 95% ethanol for 5 minutes. Paper disks were dried and placed into 5 ml Aquasol, and counted in a Liquid Scintillation Counter. Protein concentration determination was conducted by the Bradford method.
# RAR β [3] = assay: RAR induction in lungs of A/J mice exposed to isotretinoin aerosol, RAR β; type: in vivo, mouse; settings: inhaled mid dose, urethane-treated A/J mice
# Procedure: as §4, §5, §6
# RAR γ [4] = assay: Western blot of rat lung, inhaled 13-cis RA (experiment A), RAR γ; type: in vivo; settings: for upregulation of lung tissue RAR (third named, γ): daily deposited dose 6.4 mg/kg/day
# Procedure: (§1) The experimental groups were as follows (Table 4):1. Vehicle (10/9 mix of PEG 300 and Ethanol with 0.5% of ascorbic acid and 0.5% phosphatidyl choline) control, day 1: rats (19) inhaled vehicle for 2 hr for one day; 2. […] Vehicle control, day 28: rats (16) inhaled vehicle as for group 1 for a period of 28 days; 5.
# (§2) Tissues were collected, frozen in dry ice and kept at −70° C. until used. 500 mg aliquots were diced in small pieces and homogenized in 300 μl of cold PBS, using the hand held homogenizer for 2˜3 minutes. Sample and washes were centrifuged at 5000×g for 20 minutes. The pellet was suspended in 400 μl of ice-cold Buffer A [2 μl 0.5M EDTA, 10 μl 100 mM EGTA, 50 μl 100MM PMSF, 10 μl 1M DTT, 10 ml (10 mM HEPES pH 7.9+10 mM KCl)], and left at ice temperature for 15 minutes. 25 μl of 10% solution of NP-40 was added and samples were mixed in a vortex vigorously for 10 seconds. Samples were centrifuged at 14,000×g for 1 minute at 4° C. and the pellet treated once more in this fashion (resuspended etc.). The supernatant was removed and 100 μl of ice-cold Buffer C [4 μl 0.5M EDTA, 20 μl 100 mM EGTA, 20 μl 100 mM PMSF, 2 μl 1M DTT, 2 ml (20 mM HEPES pH 7.9+0.4M NaCl)] was added. Pellets were resuspended by tapping gently on the bottom of the Eppendorf tubes. Samples were rocked vigorously in a bucket of ice on an orbital shaker for 30 minutes. Samples were centrifuged at 14,000×g for 5 minutes at 4° C.
# (§3) Samples were prepared by adding one part of the Sample Buffer to one part of the sample and mixing well. Samples were heated at 95° C. for 5 minutes to induce denaturation. 5 μl of Rainbow Standard and 5 μl of Biotinylated Molecular Marker were added to parallel wells. 20 μg protein per sample was loaded in each lane. Electrophoresis was performed with voltage set at 125V for about 1˜1.5 hours. Gel transfer was executed at 25V for 2 hours. The membrane was stained in Ponceau S. for 5 minutes and destained with one wash of 5% acetic acid. The membrane was then washed in TBS solution until the staining disappeared. […]
# [5] = tested on: second aerodigestive tumors; settings: oral, 1-2 mg/kg/day, previously treated head-and-neck cancer patients; cited from earlier work
# RAR β [6] = assay: Western blot of rat lung, inhaled 13-cis RA (experiment A), RAR β; type: in vivo; settings: for upregulation of lung tissue RAR (second named, β): daily deposited dose 6.4 mg/kg/day
# Procedure: as §1, §2, §3
# [7] = daily deposited dose 1.9 mg/kg/day, day 28
# Sequence of albumin (P02768 25-609, species assumed): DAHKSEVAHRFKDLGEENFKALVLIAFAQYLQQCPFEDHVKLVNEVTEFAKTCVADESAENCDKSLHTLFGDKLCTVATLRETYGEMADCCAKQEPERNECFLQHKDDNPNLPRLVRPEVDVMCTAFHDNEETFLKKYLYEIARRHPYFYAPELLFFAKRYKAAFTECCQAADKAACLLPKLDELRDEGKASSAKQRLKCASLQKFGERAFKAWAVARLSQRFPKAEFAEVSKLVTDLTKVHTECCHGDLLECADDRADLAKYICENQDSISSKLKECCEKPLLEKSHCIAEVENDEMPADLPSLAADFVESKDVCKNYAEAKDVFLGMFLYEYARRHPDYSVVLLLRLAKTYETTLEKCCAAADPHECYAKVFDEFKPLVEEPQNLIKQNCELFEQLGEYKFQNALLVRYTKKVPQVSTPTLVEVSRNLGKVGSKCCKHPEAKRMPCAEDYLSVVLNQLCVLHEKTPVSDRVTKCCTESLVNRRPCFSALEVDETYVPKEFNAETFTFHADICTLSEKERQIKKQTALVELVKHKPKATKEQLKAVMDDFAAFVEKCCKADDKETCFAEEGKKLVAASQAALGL
smiles,measurement,setting,value
"CC1=C(/C=C/C(C)=C/C=C/C(C)=C\C(=O)O)C(C)(C)CCC1 [13-cis RA, 13-cis-Retinoic Acid]",upregulation of lung tissue RAR γ over solvent (vehicle),RAR γ [1],3.7 fold
same,Efficacy (Carcinogen),A/J mouse; 200 mg/kg weekly ingested (po),No (urethane)
same,Efficacy (Carcinogen),A/J mouse; 400 mg/kg weekly ingested (po),No (urethane)
same,prevention of urethane-induced lung cancer,"A/J mouse; orally administered, over 300 mg/kg weekly, A/J mouse model",failed to prevent
same,steady-state blood levels,[2],100 to 200 ng/mL
same,Body Weights (Mean ± SD) (N),"BaP-Treated Mice, Day 102, High Dose","19.3 ± 1.6 (12)^a,e gms"
same,Body Weights (Mean ± SD) (N),"BaP-Treated Mice, Day 102, Low Dose, vehicle control 22.5",21.8 ± 1.2 (21) gms
same,Body Weights (Mean ± SD) (N),"BaP-Treated Mice, Day 102, Mid Dose","20.1 ± 1.8 (20)^a,b gms"
same,Body Weights (Mean ± SD) (N),"NNK-Treated Mice, Day 102, High Dose","17.5 ± 1.2 (14)^a,d gms"
same,Body Weights (Mean ± SD) (N),"NNK-Treated Mice, Day 102, Low Dose, vehicle control 22.7",22.1 ± 1.5 (21) gms
same,Body Weights (Mean ± SD) (N),"NNK-Treated Mice, Day 102, Mid Dose","20.3 ± 1.2 (20)^a,b gms"
same,Body Weights (Mean ± SD) (N),"Urethane-Treated Mice, Day 60, High Dose","18.9 ± 1.7 (12)^a,c gms"
same,Body Weights (Mean ± SD) (N),"Urethane-Treated Mice, Day 60, Low Dose, vehicle control 20.8",21.0 ± 1.2 (21) gms
same,Body Weights (Mean ± SD) (N),"Urethane-Treated Mice, Day 60, Mid Dose",20.7 ± 1.5 (21) gms
same,toxicity,"high dose, daily exposures during first two weeks, listed as isotretinoin",excessive toxicity to the snout and forelimbs; also recorded: severe toxicity
same,mice that died,"high dose, daily exposures for the first two weeks",~35%
same,side effects,low dose,without any evidence of side effects
same,mice that died before the end of exposure,mid dose,3%
same,time until which dose was tolerated (mice then began losing weight),mid dose,~12 wks
same,weights below those of vehicle controls at the end of exposure,"mid dose, NNK- and BaP-treated mice",11%
same,present as albumin bound,albumin,99%
same,stimulating TGase II activity,TGase II,6.1 Fold
same,upregulation of lung tissue RAR β over solvent (vehicle),RAR β [3],3.3 fold
same,"induction of lung RAR (third named, γ)",RAR γ [4]; [7],8.1 fold
same,"upregulation of lung tissue RAR (third named, γ)",RAR γ [4]; day 1,9.7 fold
same,"upregulation of lung tissue RAR (third named, γ)",RAR γ [4]; day 17,12.9 fold
same,protection against second aerodigestive tumors,[5],significantly protective
same,"induction of lung RAR (second named, β)",RAR β [6]; [7],8.0 fold
same,"upregulation of lung tissue RAR (second named, β)",RAR β [6]; day 1,7.2 fold
same,"upregulation of lung tissue RAR (second named, β)",RAR β [6]; day 17,10.0 fold
